Source: patent US11028095B2, “Spiro-lactam and bis-spiro-lactam NMDA receptor modulators and uses thereof” (Aptinyx Inc., priority 2016, dated 2021)
Where two headings read alike, the source gives them in different places.

What was measured:
Format in all cases: biochemical
[1] = target: T1, NMDAR2A expressing HEK cell membranes (Homo sapiens, UniProt Q05586+Q12879); experiment: NMDAR agonist assay, [3H]MK-801 binding, NMDAR2A; details: for EC50: [3H]MK-801 binding; for Emax: relative to 1 mM glycine
T1 construct: expressed in transfected cells; host or cells: HEK cells (membrane extract)
Procedure: (§1) (nonequilibrium conditions).
(§2) The baseline value was determined from the best fit curve of the DPM values modeled using the GraphPad program and the log(agonist) vs. response(three parameters) algorithm was then subtracted from all points in the dataset.

[2] = target: T2, NMDAR2B expressing HEK cell membranes (Homo sapiens, UniProt Q05586+Q13224); experiment: NMDAR agonist assay, [3H]MK-801 binding, NMDAR2B; details: for EC50: [3H]MK-801 binding; for Emax: relative to 1 mM glycine
T2 construct: expressed in transfected cells; host or cells: HEK cells (membrane extract)
Procedure: as §1, §2

[3] = target: T3, NMDAR2B expressing HEK cell membranes (Homo sapiens, UniProt Q13224); experiment: NMDAR agonist assay, [3H]MK-801 binding, NMDAR2B; details: 50 μM glutamate; for EC50: [3H]MK-801 binding, read-out: NMDAR2B log EC50 (converted)
T3 construct: expressed in transfected cells; host or cells: HEK cells (membrane extract)
Procedure: as §1, §2

[4] = target: T4, NMDAR2A expressing HEK cell membranes (Homo sapiens, UniProt Q12879); experiment: NMDAR agonist assay, [3H]MK-801 binding, NMDAR2A; details: 50 μM glutamate
T4 construct: expressed in transfected cells; host or cells: HEK cells (membrane extract)
Procedure: as §1, §2

[5] = 50 μM glutamate, read-out: NMDAR2A: log EC50 (converted)
[6] = 50 μM glutamate, read-out: NMDAR2A: % maximal [3H]MK-801 binding relative to 1 mM glycine
[7] = 50 μM glutamate, read-out: NMDAR2B log EC50 (converted)
[8] = 50 μM glutamate, read-out: NMDAR2B: % maximal [3H]MK-801 binding relative to 1 mM glycine
[9] = NMDAR2A: log EC50, 50 μM glutamate
[10] = read-out: NMDAR2A: % maximal [3H]MK-801 binding relative to 1 mM glycine, 50 μM glutamate
[11] = NMDAR2B: log EC50, 50 μM glutamate
[12] = read-out: NMDAR2B: % maximal [3H]MK-801 binding relative to 1 mM glycine, 50 μM glutamate

T4 sequence (Q12879 23-1464, other chains not shown): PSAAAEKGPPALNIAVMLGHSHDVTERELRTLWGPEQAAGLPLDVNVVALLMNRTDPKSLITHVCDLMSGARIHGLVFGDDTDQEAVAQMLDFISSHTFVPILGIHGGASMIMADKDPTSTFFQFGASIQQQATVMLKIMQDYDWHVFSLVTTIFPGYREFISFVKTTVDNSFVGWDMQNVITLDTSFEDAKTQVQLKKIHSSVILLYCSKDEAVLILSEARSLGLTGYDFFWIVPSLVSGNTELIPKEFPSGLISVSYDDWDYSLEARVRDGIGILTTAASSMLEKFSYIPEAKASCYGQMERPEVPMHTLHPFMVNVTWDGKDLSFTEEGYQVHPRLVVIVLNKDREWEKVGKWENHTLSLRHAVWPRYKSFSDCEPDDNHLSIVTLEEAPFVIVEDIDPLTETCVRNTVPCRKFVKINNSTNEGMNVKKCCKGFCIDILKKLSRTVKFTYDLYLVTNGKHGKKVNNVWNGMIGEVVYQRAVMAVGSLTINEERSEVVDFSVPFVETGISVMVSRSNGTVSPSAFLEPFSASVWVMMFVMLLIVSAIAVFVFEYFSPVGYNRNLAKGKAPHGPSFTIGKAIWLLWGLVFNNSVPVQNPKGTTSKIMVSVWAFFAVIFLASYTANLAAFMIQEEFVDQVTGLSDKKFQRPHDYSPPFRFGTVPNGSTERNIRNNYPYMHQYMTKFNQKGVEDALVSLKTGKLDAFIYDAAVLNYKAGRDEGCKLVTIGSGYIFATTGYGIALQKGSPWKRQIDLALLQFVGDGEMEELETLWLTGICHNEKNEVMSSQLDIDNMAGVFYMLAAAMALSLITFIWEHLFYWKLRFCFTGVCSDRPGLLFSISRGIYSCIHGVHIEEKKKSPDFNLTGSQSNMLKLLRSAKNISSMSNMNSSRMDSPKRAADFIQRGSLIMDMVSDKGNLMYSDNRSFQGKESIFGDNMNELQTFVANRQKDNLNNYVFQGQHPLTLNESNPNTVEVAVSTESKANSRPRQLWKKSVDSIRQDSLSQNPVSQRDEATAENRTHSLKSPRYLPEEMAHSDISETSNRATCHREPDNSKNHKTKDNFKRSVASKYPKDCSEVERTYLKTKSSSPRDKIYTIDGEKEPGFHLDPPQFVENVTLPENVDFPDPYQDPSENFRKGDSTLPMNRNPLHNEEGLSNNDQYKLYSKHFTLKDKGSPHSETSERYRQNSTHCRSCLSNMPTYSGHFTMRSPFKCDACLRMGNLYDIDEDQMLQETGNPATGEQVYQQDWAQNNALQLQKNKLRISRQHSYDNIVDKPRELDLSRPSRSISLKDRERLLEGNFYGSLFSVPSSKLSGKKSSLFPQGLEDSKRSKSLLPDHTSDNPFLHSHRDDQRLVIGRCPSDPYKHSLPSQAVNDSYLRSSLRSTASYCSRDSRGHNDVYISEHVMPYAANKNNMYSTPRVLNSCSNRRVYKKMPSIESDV
T1 sequence (Q12879 23-1464, other chains not shown): as above
T3 sequence (Q13224 27-1484, other chains not shown): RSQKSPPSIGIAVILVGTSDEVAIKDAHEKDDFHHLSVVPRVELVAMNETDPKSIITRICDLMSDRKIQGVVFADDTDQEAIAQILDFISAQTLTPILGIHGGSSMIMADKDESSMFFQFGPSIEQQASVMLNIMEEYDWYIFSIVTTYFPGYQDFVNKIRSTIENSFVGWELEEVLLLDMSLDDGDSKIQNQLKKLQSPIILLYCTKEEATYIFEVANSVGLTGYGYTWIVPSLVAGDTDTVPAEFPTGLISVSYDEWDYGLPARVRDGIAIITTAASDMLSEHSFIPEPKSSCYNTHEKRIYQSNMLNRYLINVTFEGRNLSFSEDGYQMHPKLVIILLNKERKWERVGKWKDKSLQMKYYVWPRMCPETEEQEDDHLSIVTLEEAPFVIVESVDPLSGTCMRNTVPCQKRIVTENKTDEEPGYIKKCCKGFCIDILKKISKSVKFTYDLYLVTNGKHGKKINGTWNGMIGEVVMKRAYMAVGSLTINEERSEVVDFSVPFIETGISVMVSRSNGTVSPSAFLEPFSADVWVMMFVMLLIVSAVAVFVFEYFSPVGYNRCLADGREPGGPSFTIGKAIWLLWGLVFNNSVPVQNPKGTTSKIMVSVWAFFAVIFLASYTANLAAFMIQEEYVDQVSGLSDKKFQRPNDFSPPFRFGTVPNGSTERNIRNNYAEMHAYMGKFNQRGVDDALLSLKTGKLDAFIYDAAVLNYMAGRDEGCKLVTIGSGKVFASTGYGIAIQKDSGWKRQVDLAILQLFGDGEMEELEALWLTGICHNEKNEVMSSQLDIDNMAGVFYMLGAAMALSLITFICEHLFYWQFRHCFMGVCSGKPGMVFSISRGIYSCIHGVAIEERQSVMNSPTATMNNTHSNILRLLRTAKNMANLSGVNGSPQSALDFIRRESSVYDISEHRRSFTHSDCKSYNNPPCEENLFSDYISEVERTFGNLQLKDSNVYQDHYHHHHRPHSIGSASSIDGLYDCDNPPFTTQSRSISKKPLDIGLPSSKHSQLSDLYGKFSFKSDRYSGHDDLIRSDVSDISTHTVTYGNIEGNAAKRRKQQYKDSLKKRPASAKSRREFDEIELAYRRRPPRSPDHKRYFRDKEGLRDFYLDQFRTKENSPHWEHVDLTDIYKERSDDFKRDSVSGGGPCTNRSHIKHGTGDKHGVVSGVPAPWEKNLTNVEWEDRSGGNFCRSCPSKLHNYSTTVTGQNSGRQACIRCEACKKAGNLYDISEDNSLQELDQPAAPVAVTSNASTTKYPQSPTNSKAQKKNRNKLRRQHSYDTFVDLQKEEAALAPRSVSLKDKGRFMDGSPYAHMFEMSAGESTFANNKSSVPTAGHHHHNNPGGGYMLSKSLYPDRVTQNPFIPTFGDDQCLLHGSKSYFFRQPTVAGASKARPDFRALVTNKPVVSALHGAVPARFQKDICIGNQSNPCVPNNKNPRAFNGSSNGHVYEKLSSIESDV

EC50 [1, 5] [nM]	Emax [1, 6] [%]	EC50 [2, 7] [nM]	Emax [2, 8] [%]	SMILES	further results
< 1	< 100	> 100		CC(C)C(=O)N1C2(CCC13CNC3=O)CNC2=O (single isomer, unassigned) [AG, 5-isobutyryl-2,5,8-triazadispiro[3.1.36.24]undecane-1,7-dione]	NMDAR2B: % maximal [3H]MK-801 binding relative to 1 mM glycine [3]: − (−=0)
< 1	< 100	> 100		C[C@@H](O)[C@H](NC(=O)C1CCC2(CNC2=O)N1Cc1ccccc1)C(N)=O (single isomer, unassigned) [AL-1]	NMDAR2B: % maximal [3H]MK-801 binding relative to 1 mM glycine [3]: − (−=0)
	< 100	< 1	> 100	C[C@@H](O)[C@H](NC(=O)C1CCC2(CNC2=O)N1C)C(N)=O (single isomer, unassigned) [BC]	
< 1			< 100	CC(C)(C)OC(=O)N1C(C(N)=O)CCC12CN(OCc1ccccc1)C2=O (single isomer, unassigned) [BG, tert-butyl 2-(benzyloxy)-6-carbamoyl-1-oxo-2,5-diazaspiro[3.4]octane-5-carboxylate]	NMDAR2A: % maximal [3H]MK-801 binding relative to 1 mM glycine [4]: + (<100%=+)
> 100	0	> 100	0	CNC(=O)[C@@H](NCC1CCC2(CN(OCc3ccccc3)C2=O)N1C(=O)OC(C)(C)C)[C@@H](C)O (single isomer, unassigned) [BM]	
> 100		< 1	< 100	C[C@@H](O)[C@H](NCC1CCC2(CN(OCc3ccccc3)C2=O)N1C(=O)OC(C)(C)C)C(=O)N(C)C (single isomer, unassigned) [BQ]	NMDAR2A: % maximal [3H]MK-801 binding relative to 1 mM glycine [4]: − (−=0)
> 100		< 1	< 100	CC(O)C(NCC1CCC2(CN(OCc3ccccc3)C2=O)N1)C(N)=O (single isomer, unassigned) [CK]	NMDAR2A: % maximal [3H]MK-801 binding relative to 1 mM glycine [4]: − (−=0)
< 1	< 100	< 1	< 100	CC(O)C(NCC1CCC2(CNC2=O)N1)C(N)=O (single isomer, unassigned) [CM]	
< 1	< 100	< 1	< 100	CNC(=O)C(NCC1CCC2(CN(OCc3ccccc3)C2=O)N1)C(C)O (single isomer, unassigned) [CO]	
> 100		< 1	> 100	CNC(=O)C(NCC1CCC2(CNC2=O)N1)C(C)O (single isomer, unassigned) [CQ]	NMDAR2A: % maximal [3H]MK-801 binding relative to 1 mM glycine [4]: − (−=0)
< 1	< 100	< 1	< 100	CNC(=O)C(C(C)O)N(C)CC1CCC2(CN(OCc3ccccc3)C2=O)N1 (single isomer, unassigned) [CW]	
< 1	< 100	< 1	< 100	NC(=O)C1CCC2(CN(OCc3ccccc3)C2=O)N1 (single isomer, unassigned) [CY, 2-(benzyloxy)-1-oxo-2,5-diazaspiro[3.4]octane-6-carboxamide]	
				NC(=O)C1CCC2(CN(OCc3ccccc3)C2=O)N1 (single isomer, unassigned) [CZ, 2-(benzyloxy)-1-oxo-2,5-diazaspiro[3.4]octane-6-carboxamide]	EC50 ([4]; [3H]MK-801 binding, read-out: NMDAR2A: log EC50 (converted)): < 1 nM
< 1	< 100	< 1	< 100	NC(=O)C1CCC2(CNC2=O)N1 (single isomer, unassigned) [DA, 1-oxo-2,5-diazaspiro[3.4]octane-6-carboxamide]	
				NC(=O)C1CCC2(CNC2=O)N1 (single isomer, unassigned) [DB, 1-oxo-2,5-diazaspiro[3.4]octane-6-carboxamide]	EC50 [3]: < 1 nM
< 1	< 100	< 1	> 100	CC(C)CN1C(C(N)=O)CCC12CNC2=O (single isomer, unassigned) [DC, 5-isobutyl-1-oxo-2,5-diazaspiro[3.4]octane-6-carboxamide]	
< 1	< 100	< 1	< 100	NC(=O)C1CCC2(CNC2=O)N1Cc1ccccc1 (single isomer, unassigned) [DE, 5-benzyl-1-oxo-2,5-diazaspiro[3.4]octane-6-carboxamide]	

EC50 [1, 5] [nM]	Emax [1, 6] [%]	EC50 [2, 7] [nM]	Emax [2, 8] [%]	SMILES	further results
< 1	< 100		< 100	NC(=O)C1CCC2(CNC2=O)N1Cc1ccc(F)cc1 (single isomer, unassigned) [DG, 5-(4-fluorobenzyl)-1-oxo-2,5-diazaspiro[3.4]octane-6-carboxamide]	
	< 100	< 1	< 100	O=C1NCC12CCC1(CNC1=O)N2Cc1ccc(F)cc1 (single isomer, unassigned) [DI, 5-(4-fluorobenzyl)-2,5,8-triazadispiro[3.1.36.24]undecane-1,7-dione]	
< 1				O=C1NCC12CCC1(CNC1=O)N2Cc1ccc(F)cc1 (single isomer, unassigned) [DJ, 5-(4-fluorobenzyl)-2,5,8-triazadispiro[3.1.36.24]undecane-1,7-dione]	EC50 [3]: < 1 nM
				CN1C2(CCC13CNC3=O)CNC2=O (stereo not drawn) [AB-3, 5-methyl-2,5,8-triazadispiro[3.1.36.24]undecane-1,7-dione]	EC50 [1, 9]: > 100 nM; Emax [1, 10]: 0%; EC50 [2, 11]: > 100 nM; Emax [2, 12]: 0%
				CC(C)CN1C2(CCC13CNC3=O)CNC2=O (stereo not drawn) [AE, 5-isobutyl-2,5,8-triazadispiro[3.1.36.24]undecane-1,7-dione]	EC50 [1, 9]: > 100 nM; Emax [1, 10]: 0%; EC50 [2, 11]: > 100 nM; Emax [2, 12]: 0%
	< 100	> 100	0	CC(C)C(=O)N1C[C@@H](C(N)=O)C[C@]12CNC2=O [AT, (4R,7S)-5-isobutyryl-1-oxo-2,5-diazaspiro[3.4]octane-7-carboxamide]	
> 100	0	> 100	0	C[C@@H](O)[C@H](NCC1CCC2(CN(OCc3ccccc3)C2=O)N1C(=O)OC(C)(C)C)C(N)=O (stereo partly drawn) [BI]	
> 100	0		< 100	C[C@@H](O)[C@H](NCC1CCC2(CNC2=O)N1C(=O)OC(C)(C)C)C(N)=O (stereo partly drawn) [BK]	
		< 1		C[C@@H](O)[C@H](NCC1CCC2(CNC2=O)N1C(=O)OC(C)(C)C)C(N)=O (stereo partly drawn) [BL]	
> 100	0	> 100	0	CNC(=O)[C@@H](NCC1CCC2(CNC2=O)N1C(=O)OC(C)(C)C)[C@@H](C)O (stereo partly drawn) [BP]	
< 1	< 100	< 1	< 100	C[C@@H](O)[C@@H](C(N)=O)N(C)CC1CCC2(CN(OCc3ccccc3)C2=O)N1C(=O)OC(C)(C)C (stereo partly drawn) [BU, tert-butyl 6-((((2S,3R)-1-amino-3-hydroxy-1-oxobutan-2-yl)(methyl)amino)methyl)-2-(benzyloxy)-1-oxo-2,5-diazaspiro[3.4]octane-5-carboxylate]	
< 1	< 100	< 1	> 100	C[C@@H](O)[C@@H](C(=O)N(C)C)N(C)CC1CCC2(CN(OCc3ccccc3)C2=O)N1C(=O)OC(C)(C)C (stereo partly drawn) [BW]	
> 100	0	> 100	0	COc1ccc(CN2CC3(CC(N[C@H](C(N)=O)[C@@H](C)O)CN3C(=O)OC(C)(C)C)C2=O)cc1 (stereo partly drawn) [CA, tert-butyl 7-(((2S,3R)-1-amino-3-hydroxy-1-oxobutan-2-yl)amino)-2-(4-methoxybenzyl)-1-oxo-2,5-diazaspiro[3.4]octane-5-carboxylate]	
	< 100	> 100	0	COc1ccc(CN2CC3(CC(N[C@H](C(N)=O)[C@@H](C)O)CN3)C2=O)cc1 (stereo partly drawn) [CC]	
< 1				COc1ccc(CN2CC3(CC(N[C@H](C(N)=O)[C@@H](C)O)CN3)C2=O)cc1 (stereo partly drawn) [CD]	
	< 100	< 1	< 100	COc1ccc(CN2C[C@@]3(C[C@H](C(N)=O)CN3CC(C)C)C2=O)cc1 [CI, (4S,7S)-5-isobutyl-2-(4-methoxybenzyl)-1-oxo-2,5-diazaspiro[3.4]octane-7-carboxamide]	
	< 100		< 100	COc1ccc(CN2CC3(C[C@H](C(N)=O)CN3CC(C)C)C2=O)cc1 (stereo partly drawn) [CJ]	

SMILES	EC50 [1, 5] [nM]	Emax [1, 6] [%]	EC50 [2, 7] [nM]	Emax [2, 8] [%]	further results
COc1ccc(CN2CC3(CC(N[C@H](C(=O)O)[C@@H](C)O)CN3C(=O)OC(C)(C)C)C2=O)cc1 (single isomer, unassigned) [CE, (5-(tert-butoxycarbonyl)-2-(4-methoxybenzyl)-1-oxo-2,5-diazaspiro[3.4]octan-7-yl)-L-threonine]	> 100	0	< 1	> 100	
COc1ccc(CN2CC3(CC(N[C@H](C(=O)O)[C@@H](C)O)CN3C(=O)OC(C)(C)C)C2=O)cc1 (stereo partly drawn) [CF, (5-(tert-butoxycarbonyl)-2-(4-methoxybenzyl)-1-oxo-2,5-diazaspiro[3.4]octan-7-yl)-L-threonine]	> 100	0	< 1	< 100	
